Measured values as given in PubChem BioAssay (NCI).
“And” between values parts separate entries of the source, which are not always exact repeats. Equal values may be shown once.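 96-well plates; 48 h exposure; 5 concentrations. Endpoints by linear interpolation between flanking doses. Not reached: highest tested concentration assigned. The concentration for 50% growth inhibition is given as GI50. TGI denotes the concentration required for complete inhibition of growth.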

Tests used:
Assay in all cases: NCI-60 cell line screen, 48 h
CCRF-CEM leukemia = system: CCRF-CEM leukemia
HCT-15 colon = system: HCT-15 colon
HOP-62 NSCLC = system: HOP-62 NSCLC
KM12 colon = system: KM12 colon
NCI-H23 lung = system: NCI-H23 lung
SK-MEL-28 melanoma = system: SK-MEL-28 melanoma
SNB-19 CNS = system: SNB-19 CNS
SW-620 colon = system: SW-620 colon
XF 498 CNS = system: XF 498 CNS
M19-MEL melanoma = system: M19-MEL melanoma

Row | Compound | TGI (CCRF-CEM leukemia) | TGI (HCT-15 colon) | TGI (HOP-62 NSCLC) | TGI (KM12 colon) | TGI (NCI-H23 lung) | TGI (SK-MEL-28 melanoma) | TGI (SNB-19 CNS) | TGI (SW-620 colon) | TGI (XF 498 CNS) | GI50 (HCT-15 colon) [µM] | GI50 (HOP-62 NSCLC) | GI50 (KM12 colon) | GI50 (NCI-H23 lung) | GI50 (SK-MEL-28 melanoma) | GI50 (SNB-19 CNS) [µM] | TGI (M19-MEL melanoma) | GI50 (CCRF-CEM leukemia) [µM] | GI50 (M19-MEL melanoma) [µM] | GI50 (SW-620 colon) | GI50 (XF 498 CNS) [µM]
1 | Cc1cc(O)c2c(c1)C(=O)c1cc(O)cc(O)c1C2=O | > 100 µM | > 80.2 µM | 44.3 µM | > 57.5 µM | > 63.6 µM | > 82.9 µM | > 100 µM | > 100 µM | 86.7 µM |  |  |  |  |  |  |  |  |  |  | 
2 | C#CCN1CCN(C(=S)N/N=C(\C)c2ccccn2)CC1 | 2.14 µM | 4.19 µM | 5.89 µM | 4.6 µM and 6.33 µM | 3.99 µM | 8.06 µM and 7.04 µM | 17.2 µM | 7.3 µM and 4.27 µM | 2.72 µM | 0.019 | 0.124 µM | 0.4 µM | 0.00567 µM | 2.09 µM | 4.53 |  |  |  |  | 
3 | CC1C=C(OC(=O)c2ccccc2)C(=O)C(n2cc(F)c(=O)n(C(=O)c3ccccc3)c2=O)O1 (stereo not given) | 45.2 µM | > 100 µM | > 100 µM |  | > 100 µM | > 100 µM | > 100 µM | 96.6 µM | 73.3 µM |  |  |  |  |  |  | > 100 µM |  |  |  | 
4 | CCOc1ccccc1NC(=O)CCc1nnc2s/c(=C\CCc3ccccc3)c(=O)n12 | > 100 µM | > 100 µM | > 100 µM | > 100 µM | > 100 µM | > 100 µM | > 100 µM | > 100 µM | > 100 µM |  |  |  |  |  |  | > 100 µM |  |  |  | 
5 | CCc1cccc(CC)c1NC(=S)NC(=O)c1ccc(Br)cc1 | > 31.6 µM | > 78.4 µM | > 100 µM | > 100 µM | > 100 µM | > 100 µM | > 100 µM | > 100 µM | > 100 µM |  |  |  |  |  |  | > 100 µM |  |  |  | 
6 | C=CCNC1=C(C(=O)OCC)C(=O)CO1 | > 100 µM | > 100 µM |  |  | > 100 µM | > 100 µM | > 100 µM | > 100 µM | > 100 µM |  |  |  |  |  |  | > 100 µM |  |  |  | 
7 | Cc1ccc(S(=O)(=O)N2CCC3(C(/C=C/c4ccccc4)=Nc4ccccc43)C2c2ccccc2)cc1 (stereo not given) | > 100 µM | > 100 µM | > 100 µM | > 100 µM | > 100 µM | > 100 µM | > 100 µM | > 100 µM | > 100 µM |  |  |  |  |  |  | > 100 µM |  |  |  | 
8 | C=C(CN(CC(=C)C(=O)c1ccccc1)C(C)(C)C)C(=O)c1ccccc1 | > 21 µM |  |  | 17.6 µM | 32.7 µM | 36.8 µM | > 59.9 µM | 9.91 µM | 16 µM |  |  |  |  |  |  | 30 µM |  |  |  | 
9 | Cn1cc2c(n1)c(N/N=C/c1ccccc1)nn1nnnc21 | > 100 µM | > 100 µM | > 100 µM |  | > 100 µM | > 100 µM | > 100 µM | > 100 µM | > 100 µM |  |  |  |  |  |  | > 100 µM |  |  |  | 
10 | NC(=O)c1[nH]nc(C2OC(CO)C(O)C2O)c1O (stereo not given) | 2360 µM | 838 µM | 478 µM | 2980 µM | 386 µM | > 5000 µM | > 4620 µM | 2050 µM | 247 µM |  |  |  |  |  |  | > 3890 µM |  |  |  | 
11 | CC(=O)OCC1OC(OC2CC3C(C)(C)C(OC(C)=O)CC[C@]3(C)C3CCC45CC4(CC[C@H]5C(C)CC(O)C4OC4(C)C)[C@]23C)C(O)C(O)C1O (stereo not given in full) | 2.3 µM and 5.04 µM | 6 µM and 13.3 µM | 12.6 µM and 5.37 µM | 3.82 µM and 3.15 µM | 10.4 µM and 6.58 µM | 7.11 µM and 9.32 µM | 12.4 µM and 17.6 µM | 9.98 µM and 11.3 µM | 3.64 µM and 3.81 µM | 4.04 | 2.39 µM | 1.56 µM | 2.55 µM | 2.99 µM | 4.97 | 6.5 µM and 6.19 µM | 2.19 | 2.35 | 3.46 µM | 1.26
12 | CN(C)c1ccc(/C=C2\CNC/C(=C\c3ccc(N(C)C)cc3)C2=O)cc1 | > 100 µM | 15.5 µM | > 100 µM |  | > 100 µM | 42 µM |  |  | 48.6 µM |  |  |  |  |  |  | 46.8 µM |  |  |  | 
13 | NC(=O)c1csc(C2C=CC(CO)O2)n1 (stereo not given) | > 100 µM | > 100 µM | > 100 µM | > 10 µM | > 100 µM | > 100 µM | > 100 µM | > 100 µM | > 100 µM |  |  |  |  |  |  |  |  |  |  | 
14 | C/C(=N\NC(=O)CC(=O)Nc1ccc(Cl)cc1)c1cc2ccccc2oc1=O | > 100 µM | > 100 µM | > 100 µM | > 100 µM | > 100 µM | > 100 µM | > 100 µM | > 100 µM | > 100 µM |  |  |  |  |  |  | > 100 µM |  |  |  | 
15 | COc1cc(-c2oc3c(OC)c(OC)cc(O)c3c(=O)c2OC)ccc1O | > 100 µM and 21.4 µM | > 100 µM | > 100 µM | > 100 µM | > 100 µM | > 100 µM | > 100 µM | > 100 µM | 16.1 µM |  | 4.01 µM and 14.7 µM | > 100 µM and 19 µM | 7.38 µM and 35.1 µM | > 100 µM and 20 µM |  |  |  |  | > 100 µM and 37.8 µM | 
16 | CCC(=O)OC1CCn2c1nc1c2C(=O)C(C)=C(N2CC2)C1=O (stereo not given) | 3.85 µM and 21.8 µM | 0.209 µM and 0.0527 µM | 0.0431 µM and 0.143 µM | 0.159 µM and 0.363 µM | 0.0821 µM and 0.0948 µM | 0.318 µM and 0.215 µM | 1.16 µM and 0.697 µM | 0.244 µM and 0.13 µM | 0.0973 µM | 0.0204 | 0.0189 µM | 0.0242 µM | 0.0235 µM | 0.0368 µM | 0.0441 | 0.345 µM | 0.523 |  | 0.0248 µM | 
17 | O=C([O-])c1ccc2c(c1)-c1nc-2nc2[n-]c(nc3nc(nc4[n-]c(n1)c1ccc(C(=O)[O-])cc41)-c1cc(C(=O)[O-])ccc1-3)c1ccc(C(=O)[O-])cc21.[Fe+2] | > 31.3 µM | > 32.1 µM | > 50 µM | > 50 µM | > 50 µM | > 50 µM | > 50 µM | > 31.5 µM | > 50 µM | > 22.3 | > 50 µM | > 50 µM | > 50 µM | > 50 µM | > 50 | > 50 µM | > 22.2 | > 31.8 | > 21.7 µM | > 50
18 | Cc1c(O)c(=O)ccn1C1OC(CO)C(O)C1O (stereo not given) | > 100 µM | > 100 µM | > 100 µM | > 100 µM |  | > 100 µM | > 100 µM | > 100 µM | > 100 µM |  |  |  |  |  |  | > 100 µM |  |  |  | 
19 | COC(=O)C1=C(C(=O)OC)C23C=CC=CC24C(C(=O)OC)=C(C(=O)OC)C4C1C3 (stereo not given) | > 100 µM | > 100 µM | > 100 µM | > 100 µM | > 100 µM | > 100 µM | > 100 µM | > 100 µM | > 100 µM |  |  |  |  |  |  | > 100 µM |  |  |  | 
20 | O=C1CC2CCCCC2=C1O (stereo not given) | > 100 µM | > 100 µM | > 100 µM | > 100 µM | > 100 µM | > 100 µM | > 100 µM | > 100 µM | > 100 µM |  |  |  |  |  |  | > 100 µM |  |  |  | 
21 | COC(=O)c1ccccc1NC(=O)C(=O)CC(=O)c1ccccc1NC1=CC(=O)C(=O)c2ccccc21 | 33.9 µM | 34.1 µM | > 74.8 µM | 52.8 µM | 24 µM | 29.4 µM | 77.5 µM | 23 µM | 30.9 µM |  |  |  |  |  |  | 4.49 µM |  |  |  | 
22 | CCCCCCCCCCCCCC/C(C(=O)OC)=C(/O)C(=O)OCC | > 100 µM | 36.3 µM | > 100 µM | 59.8 µM | > 100 µM | 50.8 µM | > 100 µM | > 100 µM | 53.8 µM |  |  |  |  |  |  | > 100 µM |  |  |  | 
23 | CC1=C(C(=O)Nc2ccccc2C)C(c2ccc([N+](=O)[O-])cc2)C(C(=O)Nc2ccccc2C)=C(C)N1 | 90.5 µM | > 100 µM | > 100 µM | > 100 µM | > 100 µM | > 100 µM | > 100 µM | > 100 µM | > 100 µM |  |  |  |  |  |  | > 100 µM |  |  |  | 
